The values below come from PMC8881573, “Inhibition of SRP-dependent protein secretion by the bacterial alarmone (p)ppGpp” (Nature Communications, 2022).

For assay [1], the target named is T1, SRP/FtsY (Escherichia coli, UniProt P0AGD7+P10121).
T1 construct: (Ec)Ffh (full-length) was concentrated on a 10 kDa centrifugal filter; (Ec)FtsY (full-length) was re-buffered in HT buffer; His-tag; made in house; host or cells: E. coli
Kind of assay: YohP insertion into SecYEG-proteoliposomes with purified SRP/FtsY, proteinase K resistance. Particulars: added together with SRP/FtsY (20 ng µL−1 each), 10 µM GTP. The class given is biochemical, E. coli. The procedure:
For protein transport assay, YohP cloned in pET19b was synthesized in vitro using a purified transcription/translation system composed of cytosolic translation factors (CTF) and high salt-washed ribosomes[35],[36]. The ^35S-Methionine/^35S-Cysteine labeling mix was obtained from Perkin Elmer (Wiesbaden, Germany). INVs of E. coli cells were prepared by sucrose gradient centrifugation of cell extracts as described[76] and resuspended in INV buffer (50 mM triethanolamine acetate, pH 7.5, 200 mM sucrose, 1 mM DTT). […] The supernatant containing YohP was then incubated with INV, liposomes or SecYEG-proteoliposomes for 10 min at 37 °C in the presence of 10 µM GTP. […] Next, the samples were denatured at 56 °C for 10 min in 35 μL of TCA loading dye (prepared by mixing one part of solution III (1 M dithiothreitol) with 4 parts of solution II (6.33% (w/v) SDS, 0.083 M Tris, 30% (v/v) glycerol and 0.053% (w/v) bromophenol blue) and 5 parts of solution I (0.2 M Tris, 0.02 M EDTA pH 8)) and analyzed after separation on a modified SDS-PAGE[35] by phosphor imaging. For quantification of YohP insertion, autoradiography samples were analyzed by using the ImageQuant (GE Healthcare) software. […] Mean values and SEM values were determined by using either Excel (Microsoft Corp.) or GraphPad Prism (GraphPad Prism Corp. San Diego). […]

Assay [2] addresses T2, full-length (Ec)Ffh and (Ec)FtsY-NG (Escherichia coli, UniProt P0AGD7+P10121).
T2 construct: GTPase activity of full-length (Ec)Ffh and the NG domain of (Ec)FtsY was assayed; His-tag; His6 (C); made in house; host or cells: E. coli BL21 (DE3)
Kind of assay: GTPase activity (GTP hydrolysis, HPLC). The class given is biochemical, E. coli. Particulars: alarmone at concentrations equimolar to the GTP substrate (1 mM) or higher; with or without 4.5S RNA, ΔEspP signal peptide, C12E8. On the procedure: GTPase activity of full-length (Ec)Ffh and the NG domain of (Ec)FtsY was assayed in a buffer containing 25 mM HEPES-K pH 7.5, 10 mM Mg(OAc)2, 300 mM K(OAc), 1 mM DTT, and 2.5% (v/v) glycerol. The samples contained 5 µM (Ec)Ffh, 5 µM (Ec)FtsY-NG, 6 µM 4.5S RNA, 5 µM ΔEspP (EspP signal peptide sequence: MKK HKR ILA LCF LGL LQS SYS WAK KKK, custom synthesized from Genosphere Biotechnologies (France)[40], and 100 µM C12E8 (octaethylenglykol-monododecylether, Sigma Aldrich)[40] as indicated in figures. Alarmones ppGpp (Jena Bioscience, ≥95% purity) or pppGpp (Jena Bioscience, ≥85% purity) were supplemented in concentrations of 10, 25, 100, 250, 1000, 2500, or 10,000 µM as indicated in the figures. The enzymatic reactions were initiated by the addition of 1 mM GTP (Jena Bioscience, ≥99% purity) and allowed to proceed for 60 min at 37 °C, after which 40 µL double-distilled water were added immediately followed by 150 µL of chloroform. […] The nucleotide content was determined by high-performance liquid chromatography (HPLC) on an Agilent 1260 Infinity system (software: ChemStation Rev. B04.03-SP1) equipped with a Metrosep A Supp 5–150/4.0 column (Metrohm). Ten microliters of sample were injected and nucleotides eluted isocratically at 0.6 mL min^−1 flow rate of 100 mM (NH4)2CO3 pH 9.25 and detected at 260 nm wavelength. […]

T1 sequence (P0AGD7 whole entry): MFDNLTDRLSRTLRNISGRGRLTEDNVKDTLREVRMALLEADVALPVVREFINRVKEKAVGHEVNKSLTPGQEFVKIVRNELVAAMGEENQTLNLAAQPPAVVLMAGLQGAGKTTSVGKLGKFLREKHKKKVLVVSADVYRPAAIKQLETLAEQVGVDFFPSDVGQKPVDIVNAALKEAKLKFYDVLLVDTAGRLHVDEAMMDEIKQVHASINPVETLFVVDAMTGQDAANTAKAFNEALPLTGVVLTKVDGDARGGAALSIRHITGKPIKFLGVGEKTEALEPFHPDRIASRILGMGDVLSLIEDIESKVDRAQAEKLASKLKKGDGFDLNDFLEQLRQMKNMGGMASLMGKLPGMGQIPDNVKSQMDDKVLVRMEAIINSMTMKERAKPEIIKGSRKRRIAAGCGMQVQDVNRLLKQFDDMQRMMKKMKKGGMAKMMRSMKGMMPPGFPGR
T1 sequence (P10121 whole entry): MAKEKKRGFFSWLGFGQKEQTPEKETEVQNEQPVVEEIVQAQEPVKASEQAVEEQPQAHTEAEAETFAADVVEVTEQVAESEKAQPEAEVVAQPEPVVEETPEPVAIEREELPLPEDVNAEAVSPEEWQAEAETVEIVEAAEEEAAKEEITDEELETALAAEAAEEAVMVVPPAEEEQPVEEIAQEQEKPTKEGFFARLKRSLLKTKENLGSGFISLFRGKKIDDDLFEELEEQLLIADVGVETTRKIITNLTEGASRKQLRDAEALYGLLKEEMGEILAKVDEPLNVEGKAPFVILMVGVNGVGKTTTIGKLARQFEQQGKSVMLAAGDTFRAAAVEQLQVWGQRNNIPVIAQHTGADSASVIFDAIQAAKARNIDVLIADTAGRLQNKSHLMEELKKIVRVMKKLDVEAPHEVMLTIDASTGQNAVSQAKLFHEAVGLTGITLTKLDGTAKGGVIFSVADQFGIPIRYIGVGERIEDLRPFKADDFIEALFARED
T2 sequence (P0AGD7 whole entry, the tested form may be a part): as the sequence (P0AGD7 whole entry) above
T2 sequence (P10121 197-497): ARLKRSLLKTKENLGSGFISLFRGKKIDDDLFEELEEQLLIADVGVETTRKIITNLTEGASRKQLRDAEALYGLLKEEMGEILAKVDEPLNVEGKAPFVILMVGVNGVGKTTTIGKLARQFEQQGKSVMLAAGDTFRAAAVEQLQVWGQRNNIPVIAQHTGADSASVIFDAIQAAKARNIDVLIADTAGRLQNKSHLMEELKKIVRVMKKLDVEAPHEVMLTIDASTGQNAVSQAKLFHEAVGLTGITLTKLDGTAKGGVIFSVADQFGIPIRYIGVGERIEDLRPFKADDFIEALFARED

With `Nc1nc2c(ncn2[C@@H]2O[C@H](COP(=O)(O)OP(=O)(O)OP(=O)(O)O)[C@@H](OP(=O)(O)OP(=O)(O)O)[C@H]2O)c(=O)[nH]1` [pppGpp], in assay [1], the “YohP insertion into SecYEG proteoliposomes” value is recorded as “reduced YohP insertion into SecYEG proteoliposomes drastically”. For the same compound, the GTP hydrolysis entry in assay [2] is “reduction of GTP hydrolysis”.
For the compound `Nc1nc2c(ncn2[C@@H]2O[C@H](COP(=O)(O)OP(=O)(O)O)[C@@H](OP(=O)(O)OP(=O)(O)O)[C@H]2O)c(=O)[nH]1` [ppGpp], in assay [1], the “YohP insertion into SecYEG proteoliposomes” value is given as “reduced YohP insertion into SecYEG proteoliposomes drastically”. In assay [2], the GTP hydrolysis entry was “reduction of GTP hydrolysis”.
